In brackets after ≈: the same amount, converted by molar mass. Where a SMILES comes first, the peptide text is derived from it. The star is where a group is joined. Orn(α-tetramethylguanidino) = CN(C)C(=N[C@@H](CCCN)C(=O)*)N(C)C
Tests used:
[1] = biological target: T1, P. aeruginosa elastase (Pseudomonas aeruginosa, UniProt P14756); assay: Elastase assay (proteolytic stability); assay type: in vitro ADME; settings: after 6 h, elastase 12 units/mL, pH 8.3, 37°C
T1 construct: purchased Merck (Darmstadt, Germany)
T1 sequence (P14756 198-498): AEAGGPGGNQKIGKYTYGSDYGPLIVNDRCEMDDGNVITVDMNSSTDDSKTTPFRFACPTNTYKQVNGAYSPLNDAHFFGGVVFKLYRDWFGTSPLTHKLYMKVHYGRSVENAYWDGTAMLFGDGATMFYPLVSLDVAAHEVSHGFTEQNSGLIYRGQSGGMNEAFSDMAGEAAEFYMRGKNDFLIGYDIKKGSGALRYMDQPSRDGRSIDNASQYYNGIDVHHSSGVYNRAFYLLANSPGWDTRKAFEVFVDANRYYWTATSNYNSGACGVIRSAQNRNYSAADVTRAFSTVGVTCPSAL
Method: A stock solution of P. aeruginosa elastase (0.26 U/μL) was prepared in Tris-HCl (5 mmol/L, pH 8.3) and stored at −80°C. Peptides (0.5 g/L in 5 mmol/L Tris-HCl, pH 8.3) were incubated with elastase (0.012 U/μL) at 37°C under constant shaking (450 rpm) for 0, 0.5, 2, 4, and 6 h. Aliquots (10.5 μL) were precipitated with a mixture of acetonitrile and ethanol (1:1 v/v) containing 0.1% TFA (21 μL), centrifuged, the supernatant transferred into a new tube, and dried in vacuum. Samples were dissolved in aqueous acetonitrile (3% v/v) containing TFA (0.1% v/v) and analyzed by RP-HPLC using the conditions described above.

[2] = system: P. aeruginosa DSM 1117 (ATCC 27853); assay type: cell-based, Pseudomonas aeruginosa; settings: DSM 1117, 24 h
Method: (§1) MICs of P. aeruginosa strains DSM 1117 (ATCC 27853), DSM 3227 (ATCC 19429), and DSM 9644 were determined in a microdilution broth assay using 50 or 100% MHB (11.5 and 23 g/L MHB, respectively) whereas MICs of E. coli DSM 1103 (ATCC 25922) and K. pneumoniae DSM 681 (ATCC 10031) were determined in TSB (30 g/L TSB). Peptides (1 g/L in water) were serially two-fold diluted in a 96-well microtiter plate (PS, sterile, flat bottom) in 50 μL of the corresponding medium to final concentrations of 512–4 μg/mL. Bacteria were grown in nutrient broth overnight and diluted to a cell concentration of 1.5 × 10^7 cells/mL in the corresponding medium. Cell densities were determined by using the McFarland standard as reference. An aliquot (50 μL) of the cell culture was added to each well and incubated (37°C, 24 h). The OD595 was determined in a SpectraMax 340PC (Molecular Devices, Sunnyvale, USA). Additionally, MIC values were also determined for high bacteria densities (5 × 10^8 cells/mL) corresponding to the conditions used for TEM, as described above.

[3] = system: E. coli DSM 1103; assay: Transmission electron microscopy, morphological changes; assay type: cell-based, Escherichia coli; settings: 1 h
Method: Peptide-bacteria mixtures were fixed (2% glutaraldehyde, 5 mmol/L CaCl2, 10 mmol/L MgCl2 in 0.1 mol/L sodium cacodylate buffer, pH 7.4) overnight at 4°C. […] Samples were rinsed with distilled water (5 × 10 min), incubated with aqueous uranylacetate (0.5% w/v) for 1 h at 4°C, washed with distilled water (3 × 10 min), and embedded in Epon. The hardened blocks were sectioned (50 nm) on a UCT ultramicrotome (Leica, Vienna, Austria), stained with uranyl acetate and lead citrate on an AC20 system (Leica), and visualized at a Tecnai 12 electron microscope (FEI, Eindhoven, The Netherlands) at 80 kV. Morphological effects were quantified on average for 25 cells per condition.

[4] = system: E. coli DSM 1103 (ATCC 25922); assay type: cell-based, Escherichia coli; settings: DSM 1103, 24 h
Method: as §1

Structure (SMILES): CC[C@H](C)[C@H](NC(=O)[C@H](Cc1ccc(O)cc1)NC(=O)[C@@H](NC(=O)[C@@H]1CCCN1C(=O)[C@H](CCCNC(=N)N)NC(=O)[C@H](CC(N)=O)NC(=O)[C@H](CC(N)=O)NC(=O)[C@H](CCCN)N=C(N(C)C)N(C)C)C(C)C)C(=O)N1CCC[C@H]1C(=O)N[C@@H](CCCNC(=N)N)C(=O)N1CCC[C@H]1C(=O)N[C@@H](CCCNC(=N)N)C(=O)N1CCC[C@H]1C(=O)N1CCC[C@H]1C(=O)N[C@@H](Cc1c[nH]cn1)C(=O)N1CCC[C@H]1C(=O)N[C@@H](CCCNC(=N)N)C(=O)N[C@@H](CC(C)C)C(=O)O [Api137, gu-ONNRPVYIPRPRPPHPRL-OH, reference compound] ({Orn(α-tetramethylguanidino)}-NNRPVYIPRPRPPHPRL-OH)
- Peptide remaining with elastase [1]: fully recovered
- MIC P. aeruginosa DSM 1117, high inoculum [2]: 128 µg/mL (≈ 55.9 µM)
- Cell: r, ruptured ([3]; 8 µg/mL): 0%
- DNA/Ribosomes relocalized ([3]; 8 µg/mL): 17%
- Fragments: +++, long and thick ([3]; 8 µg/mL): 0%
- Fragments: ++, long and thin ([3]; 8 µg/mL): 27%
- Fragments: +, small and thin ([3]; 8 µg/mL): 30%
- Fragments: -, no ([3]; 8 µg/mL): 43%
- Fragments: LV, large vesicles ([3]; 8 µg/mL): 0%
- Membrane: i, intact ([3]; 8 µg/mL): 100%
- Membrane: w, wrinkled ([3]; 8 µg/mL): 0%
- Vesicle release strong ([3]; 8 µg/mL): 100%
- Cell: r, ruptured ([3]; 32 µg/mL): 0%
- DNA/Ribosomes relocalized ([3]; 32 µg/mL): 30%
- Fragments: +++, long and thick ([3]; 32 µg/mL): 0%
- Fragments: ++, long and thin ([3]; 32 µg/mL): 23%
- Fragments: +, small and thin ([3]; 32 µg/mL): 40%
- Fragments: -, no ([3]; 32 µg/mL): 37%
- Fragments: LV, large vesicles ([3]; 32 µg/mL): 0%
- Membrane: i, intact ([3]; 32 µg/mL): 97%
- Membrane: w, wrinkled ([3]; 32 µg/mL): 3%
- Vesicle release strong ([3]; 32 µg/mL): 100%
- Cell: r, ruptured ([3]; 128 µg/mL): 0%
- DNA/Ribosomes relocalized ([3]; 128 µg/mL): 0%
- Fragments: +++, long and thick ([3]; 128 µg/mL): 0%
- Fragments: ++, long and thin ([3]; 128 µg/mL): 42%
- Fragments: +, small and thin ([3]; 128 µg/mL): 54%
- Fragments: -, no ([3]; 128 µg/mL): 4%
- Fragments: LV, large vesicles ([3]; 128 µg/mL): 0%
- Membrane: i, intact ([3]; 128 µg/mL): 4%
- Membrane: w, wrinkled ([3]; 128 µg/mL): 96%
- Vesicle release weak ([3]; 128 µg/mL): 35%
- Cell: r, ruptured ([3]; 512 µg/mL): 0%
- DNA/Ribosomes relocalized ([3]; 512 µg/mL): 0%
- Fragments: +++, long and thick ([3]; 512 µg/mL): 0%
- Fragments: ++, long and thin ([3]; 512 µg/mL): 29%
- Fragments: +, small and thin ([3]; 512 µg/mL): 61%
- Fragments: -, no ([3]; 512 µg/mL): 11%
- Fragments: LV, large vesicles ([3]; 512 µg/mL): 0%
- Membrane: i, intact ([3]; 512 µg/mL): 32%
- Membrane: w, wrinkled ([3]; 512 µg/mL): 68%
- Vesicle release weak ([3]; 512 µg/mL): 50%
- MIC E. coli ATCC 25922 [4]: 2 µg/mL (≈ 0.873 µM)
- MIC E. coli DSM 1103, high inoculum [4]: 32 µg/mL (≈ 14 µM)
